Test results as given in paper PMC10675077, “Antimicrobial Properties of New Polyamines Conjugated with Oxygen-Containing Aromatic Functional Groups” (Molecules, 2023).
≈ marks a conversion by molar mass, not a printed value.

Assays:
[1] = system: Saccharomyces cerevisiae BY4741/YEplac195-PDR5; test: microbe, parasite or virus in culture; assay type: cell-based; details: Saccharomyces cerevisiae, 24 h, read-out: MIC, Yeast, BY4741/ PDR5
Text: (§1) The microorganisms used for the susceptibility tests were the bacteria Escherichia coli JM101 and Staphylococcus aureus BHI, and the yeast Saccharomyces cerevisiae strains BY4741 (MAT a his3Δ1 leu2Δ0 met15Δ0 ura3Δ0 (EUROSCARF)) carrying YEplac195 (from EUROSCARF) or YEPlac195-PDR5 (provided by Ayse Banu Demir, Izmir University of Economics, Turkey) plasmids.
(§2) Bacterial strains were usually maintained and grown in an LB medium (0.5% (w/v) yeast extract, 1% (w/v) bactotryptone, and 1% (w/v) NaCl) at 37 °C. For MIC (minimal inhibitory concentration) and MMC (minimal microbicidal concentration) assays, and for the determination of synergies, overnight growth was carried out in 2% (w/v) bactopeptone (BP), and then the cultures were diluted and incubated for several hours in 2% (w/v) BP for ensuring logarithmic growth. Yeast strains were grown in an SC-ura medium (0.17% (w/v) yeast nitrogen base without amino acids and ammonium sulphate, 0.2% (w/v) drop-out without uracil, 0.5% (w/v) (NH4)2SO4, and 2% (w/v) glucose) at 30 °C. Liquid cultures were incubated with shaking (200 rpm). Solid media also contained 2% (w/v) agar.
(§3) The determination of the MIC for yeast strains was carried out following a similar procedure to that of the polyamines and antifungal reference agents: Serial dilutions of each one in phosphate buffer (20 mM, pH 7.4, 0.5 mL) were prepared and mixed with a suspension of yeast cells (OD600 0.04 in SC-ura 2X (VWR, Atlanta, GA, USA), 0.5 mL). […] Experiments were carried out at least three times in all cases.

[2] = system: Saccharomyces cerevisiae BY4741/YEplac195; test: microbe, parasite or virus in culture; assay type: cell-based; details: Saccharomyces cerevisiae; 24 h, 30 °C; average of at least three experiments; read-out: MIC, Yeast, BY4741/ YEplac195
Text: as §1, §2, §3

yeast cells = test: Intracellular ATP by luciferase bioluminescence, yeast; assay type: cell-based, Saccharomyces cerevisiae; details: overnight treatment
Method: The procedure described by Lehtinen et al. was followed, with the modifications indicated herein. In the case of bacteria, 1.5 OD600 units were incubated overnight in 1 mL of final volume with 5-fold MIC concentrations. Then, the cells were collected, washed 3 times in 20 mM phosphate buffer pH 7.4, and lysed in 200 μL of LS1 (50 mM of glucose, 25 mM of Tris-HCl pH 8.0, and 10 mM of EDTA pH 8.0) containing 5 mg/mL of lysozyme and the same volume of glass beads (425–600 μm), by stirring 10 times for 15 s each. Then, the solution was centrifuged at 14,800× g for 15 min, and the supernatant was used for a luciferase assay. For this purpose, in each well of a microtiter plate, 100 μL of luciferase assay buffer (0.015 M of MgSO4, 0.015 M of KH2PO4 pH 8, 0.004 M of EGTA pH 8, and 2 mM of DTT) was added together to a 50 μL of 0.3 mg/mL luciferin solution in 0.01% (w/v) Triton X-100 and 50 μL of the cell extract. Finally, 15 μL of a 67 μg/mL aqueous solution of luciferase was added. Light emission was immediately detected using a Luminoskan Ascent instrument (Thermo Scientific, Waltham, MA, USA) for 1 s per well. Glass beads, lysozyme, luciferin, and luciferase were purchased from Sigma-Aldrich.
[…] Then, cells were collected and washed as above and resuspended in 500 μL of LS2 (140 mM of NaCl, 1.5 mM of MgCl2, 10 mM of Tris-HCl pH 8.0, and 0.5% (v/v) NP40). Cells were lysed in the presence of 1 volume of glass beads as described above. The next steps were carried out as in the case of bacterial samples.
Experiments were carried out at least in triplicate in all cases, and control drugs and SDS (0.1% (w/v) of the final concentration) were also included.

Escherichia coli JM101 = test: MIC, microdilution in culture medium, E. coli; assay type: cell-based; details: Escherichia coli, JM101; 20 h, 37 °C; average of at least three experiments; read-out: MIC, Bacteria, E. coli JM101
Text: as §1, §2
(§4) For the analysis of the antimicrobial activity, the strategies and indications of Cushnie et al. were considered. The standardised method of microdilution in a culture medium was followed to determine the MIC [55]. In bacterial strains, serial dilutions of the compounds to be tested and the control antibiotics were prepared in phosphate buffer (20 mM, pH 7.4, 0.5 mL) and were mixed with a suspension of bacterial cells in a logarithmic growth phase (in 1% BP, 0.5 mL). The final OD600 of the whole solutions were 0.004 and 0.008 for E. coli and S. aureus cultures, respectively. After 20 h of incubation at 37 °C with shaking, the MIC was determined as the lowest concentration of each compound in which no visible bacterial growth was observed.

[3] = system: Staphylococcus aureus BHI; test: MIC, microdilution in culture medium, S. aureus; assay type: cell-based; details: Staphylococcus aureus; 20 h, 37 °C; average of at least three experiments; read-out: MIC, Bacteria, S. aureus BHI
Text: as §1, §2, §4

[4] = system: Yeast (S. cerevisiae strains); test: MIC, yeast (strain not specified); assay type: cell-based, Saccharomyces cerevisiae; details: Saccharomyces cerevisiae; yeast strain not specified (Tables 5 and 10); read-out: MIC Yeast
Method: as §3

E. coli JM101 = test: Minimal bactericidal concentration, E. coli; assay type: cell-based, Escherichia coli; details: Escherichia coli, JM101; overnight incubation, plating on LB; bacteriostatic if growth at 4 times the MIC
Method: (§5) Once the MIC was known, the samples were prepared as described in the previous section with polyamine concentrations corresponding to the MIC and half, double, and four times its value. After overnight incubation with the microorganisms, 30 μL of a ten-fold dilution of each one was spread in LB (in the case of bacterial strains) or SC-ura (for yeast strains) plates. They were incubated for 20 h at 37 °C (bacteria) or 48 h at 30 °C (yeasts), and the level of growth was determined. […] Experiments were carried out at least three times.

S. cerevisiae strains = test: Minimal fungicidal concentration, S. cerevisiae strains; assay type: cell-based, Saccharomyces cerevisiae; details: fungistatic = growth on SC-ura plates after incubation at four times the MIC
Method: as §5

BY4741/YEplac195 = test: Checkerboard titration synergy, BY4741/YEplac195; assay type: cell-based, Saccharomyces cerevisiae; details: synergistic when FICI ≤0.5
Method: (§6) The combined antimicrobial activity of the test compounds with the antibacterial or antifungal control agents was performed under the same conditions used for the MIC determination and following the procedures described by Carton Herrán, Reis de Sá et al. and Zharkova et al.. For each experiment, 16 samples (4 rows × 4 columns) in a total volume of 0.5 mL were prepared in tubes using an array of combinations between the MIC value and 0 μg/mL of the compound to be tested in each row, and between the MIC value and 0 μg/mL of the reference drug in each column. In this way, a variety of mixtures with different concentrations of them alone or in combination was obtained. Briefly, 0.5 mL of a microorganism culture was added to each one of the samples, and after incubation for 24 h with shaking at the appropriate temperature (37 °C or 30 °C), the tubs were visually inspected, and the OD600 was measured. From this information, the fractional inhibitory concentration index (FICI) was calculated according to the formula FIC index = ([A]/[CMI A]) + ([B]/[CMI B]), where [A] and [B] are respective concentrations of tested polyamine and reference drug in their combination effectively inhibiting the growth of bacteria or yeast, and [MIC A] and [MIC B] are the individual MICs of the tested polyamine and reference drug when they are used alone. An interaction is considered synergistic when the FICI value is ≤0.5 [41, 42].
(§7) To confirm the data obtained in the checkerboard assay, 30 μL of a ten-fold dilution of the tubes containing concentrations of half of the MIC of each one of the compounds alone (polyamine to be tested and reference drug) and one fourth of the MIC of each one in combination were also spread in LB or SC-ura plates (according to the microorganism considered in each case) and incubated at 37 °C or 30 °C. The visualisation of these plates was performed after 24 or 48 h, respectively. All these experiments were carried out in triplicate.

BY4741/PDR5 = test: Checkerboard titration synergy, BY4741/PDR5; assay type: cell-based, Saccharomyces cerevisiae; details: synergistic when FICI ≤0.5
Method: as §6, §7

E. coli [5] = test: Checkerboard titration synergy, E. coli; assay type: cell-based, Escherichia coli; details: synergistic when FICI ≤0.5
Method: as §6, §7

[6] = Cytotoxicity, flow cytometry viability assay with propidium iodide; assay type: cell-based, human; details: human, Jurkat cells (human lymphocytic leukaemia, ATCC TIB-152), 24 h treatment, average of three experiments, read-out: IC50, cytotoxicity on the human Jurkat cell line
Method: The cytotoxicity of the compounds was assessed via flow cytometry with a viability assay using propidium iodide (PI), a DNA-binding fluorescent probe not permeant to live cells, which is commonly used to detect dead cells in a population. The human lymphocytic leukaemia Jurkat cell line (ATCC TIB-152) was obtained from the American Type Cell Culture (Sigma-Aldrich) and grown in suspension in an RPMI 1640 medium (Thermo Fisher Scientific, Waltham, MA, USA) supplemented with L-glutamine, antibiotics, and 10% heat-inactivated foetal calf serum (FCS, Thermo Fisher Scientific, Waltham, MA, USA). For the viability assay, cells were seeded in plastic 96-well plates at […] in an RPMI 1640 medium supplemented with 5% FCS. The cells were treated for 24 h with a range of concentrations of the test compounds or with the same volume of phosphate buffer (PBS) in control wells. After incubation, cell suspensions were washed, resuspended in 400 μL fresh medium, and incubated for 5 min at room temperature in the dark with 3.75 μM PI (Sigma-Aldrich). Cell viability was determined via flow cytometry using a Gallios flow cytometer (Beckman Coulter). PI fluorescence was excited with an argon-ion laser at 488 nm and collected through a 620/630 nm band-pass emission. Cellular events were discriminated from debris using forward scatter (FS) and side scatter (SS) signals. Cell aggregates were excluded from analysis based on FS-integral and FS-peak. The gates applied for population discrimination were set manually based on control samples. For each sample, 10,000 events were collected. For further analysis, the cytometric data were exported to Kaluza 2.1 software (Beckman Coulter, Brea, CA, USA). Dead cells were identified and quantified as PI-positive events. The cytotoxic potency of test compounds was quantified using their IC50 values, i.e., the compound concentration at which cell viability is inhibited by 50%, as calculated via curve fitting and determined with the correlation coefficient (R2) using GraphPad Prism 9.0 software. Experiments were carried out in triplicate.

S. aureus = test: Lytic activity, time-kill (OD600), S. aureus; assay type: cell-based, Staphylococcus aureus; details: 5 times the MIC
Method: (§8) To determine if the compounds showing microbicidal activity induce cell lysis, the procedure described by Fleeman et al. was followed, with the modifications indicated below. The E. coli and S. aureus strains were grown as in the experiments described earlier. The cells corresponding to 1.5 units of OD600 were collected and resuspended in 1% BP after washing in the same medium. They were incubated in a final volume of 1 mL with concentrations 5 times higher than the MIC of the analysed compounds, and OD600 was monitored over time. Other antimicrobial compounds were also used in this study as controls. The experiments were performed in triplicate.

E. coli [7] = test: Lytic activity, time-kill (OD600), E. coli; assay type: cell-based, Escherichia coli; details: 5 times the MIC
Method: as §8

Structure (SMILES)	MIC [1] [µg/mL]	MIC [2] [µg/mL]	MIC (Escherichia coli JM101) [µg/mL]	MIC [3] [µg/mL]	Lytic activity (OD600 over time) (S. aureus)	also measured
C[C@@H]1[C@H](O)[C@@H](C)/C=C/C=C/C=C/C=C/C=C/C=C/C=C/[C@H](O[C@@H]2O[C@H](C)[C@@H](O)[C@H](N)[C@@H]2O)C[C@@H]2O[C@](O)(C[C@@H](O)C[C@@H](O)[C@H](O)CC[C@@H](O)C[C@@H](O)CC(=O)O[C@H]1C)C[C@H](O)[C@H]2C(=O)O [Amphotericin B, reference compound]	1	1				Intracellular ATP level relative to untreated cells (yeast cells; 50-fold the MIC): dramatic decrease
OC(Cn1cncn1)(Cn1cncn1)c1ccc(F)cc1F [Fluconazole, reference compound]	60	10				Intracellular ATP level relative to untreated cells (yeast cells; 30-fold the MIC): very reduced
NCCN1CCNCc2cccc(n2)CNCC1 [Compound 5b]	110	110	10	200		MIC [4]: 110 µg/mL (≈ 441 µM); MBC (E. coli JM101): 20 µg/mL (≈ 80.2 µM); Minimal fungicidal concentration (MFC), S. cerevisiae Strains (S. cerevisiae strains): Fungistatic; Synergy with Amphotericin B (BY4741/YEplac195): -; Synergy with Cycloheximide (BY4741/YEplac195): positive results and +; Synergy with Fluconazole (BY4741/YEplac195): synergic and +; Synergy with Amphotericin B (BY4741/PDR5): -; Synergy with Cycloheximide (BY4741/PDR5): positive results and +; Synergy with Ciprofloxacin (E. coli [5]): synergy; IC50 at 24 h [6]: 1250 µg/mL (≈ 5020 µM)
C[C@H]1c2cccc(O)c2C(=O)C2=C(O)[C@]3(O)C(=O)C(C(N)=O)=C(O)[C@@H](N(C)C)[C@@H]3[C@@H](O)[C@@H]21 [Doxycycline, reference compound]			1	0.25	not the case	
CCCCCCCCCCCCOS(=O)(=O)[O-].[Na+] [SDS]						Intracellular ATP level relative to untreated cells (yeast cells; 0.1% (w/v)): 50–70%
CC1(C)S[C@@H]2[C@H](NC(=O)[C@H](N)c3ccccc3)C(=O)N2[C@H]1C(=O)O [Ampicillin, reference compound]			2	0.14	cellular lysis	Lytic activity (OD600 over time) (E. coli [7]): OD600 significantly decreased
